Source: article PMC5218480 (PLoS ONE, 2017)

Tested on: MV-4-11 cells
Experiment: Gene expression microarray analysis (Affymetrix PrimeView) and GSEA
Type: cell-based, human
Parameters: RFU PODN (11730768_x_at) / Fold change /veh PODN (11730768_x_at) / RFU LINC00158 (11744669_a_at) / Fold change /veh LINC00158 (11744669_a_at) / RFU DUSP10 (11751237_a_at) / Fold change /veh DUSP10 (11751237_a_at) / RFU ID3 (11757404_x_at) / Fold change /veh ID3 (11757404_x_at) / RFU PLEKHG5 (11737974_s_at) / Fold change /veh PLEKHG5 (11737974_s_at) / RFU LRRC4B (11730491_at) / Fold change /veh LRRC4B (11730491_at) / RFU GIMAP4 (11747438_a_at) / Fold change /veh GIMAP4 (11747438_a_at) / RFU KRT8 (11758183_x_at) / Fold change /veh KRT8 (11758183_x_at) / RFU CNN1 (11734310_a_at) / Fold change /veh CNN1 (11734310_a_at) / RFU VPS37D (11726825_at) / Fold change /veh VPS37D (11726825_at) / RFU C10orf10 (11716522_x_at) / Fold change /veh C10orf10 (11716522_x_at) / RFU KIR2DL2 /// KIR2DL4 /// KIR2DL5A /// KIR2DL5B /// KIR2DS1 /// KIR2DS2 /// KIR2DS3 /// KIR2DS4 /// KIR3DL3 /// KIR3DL3 /// KIR3DS1 (11738374_at) / Fold change /veh KIR2DL2 /// KIR2DL4 /// KIR2DL5A /// KIR2DL5B /// KIR2DS1 /// KIR2DS2 /// KIR2DS3 /// KIR2DS4 /// KIR3DL3 /// KIR3DL3 /// KIR3DS1 (11738374_at) / RFU C1QL1 (11718748_at) / Fold change /veh C1QL1 (11718748_at) / RFU TMPRSS4 (11747572_a_at) / Fold change /veh TMPRSS4 (11747572_a_at) / RFU HAMP (11756126_x_at) / Fold change /veh HAMP (11756126_x_at) / RFU RNFT2 (11725882_a_at) / Fold change /veh RNFT2 (11725882_a_at) / RFU NR4A2 (11747474_a_at) / Fold change /veh NR4A2 (11747474_a_at) / RFU ABCC12 (11746883_a_at) / Fold change /veh ABCC12 (11746883_a_at) / RFU TMEM136 (11760407_x_at) / Fold change /veh TMEM136 (11760407_x_at) / RFU CLDN22 /// WWC2 (11732394_at) / Fold change /veh CLDN22 /// WWC2 (11732394_at) / RFU HLA-DPB1 (11760878_x_at) / Fold change /veh HLA-DPB1 (11760878_x_at) / RFU SPINT1 (11716480_a_at) / Fold change /veh SPINT1 (11716480_a_at) / RFU GAP43 (11754022_s_at) / Fold change /veh GAP43 (11754022_s_at) / RFU A4GNT (11735810_at) / Fold change /veh A4GNT (11735810_at) / RFU PRB3 (11715151_x_at) / Fold change /veh PRB3 (11715151_x_at) / RFU TUBB4B (11761932_at) / Fold change /veh TUBB4B (11761932_at) / RFU CAPN14 (11732068_a_at) / Fold change /veh CAPN14 (11732068_a_at) / RFU TMCC2 (11721928_a_at) / Fold change /veh TMCC2 (11721928_a_at) / RFU IRGQ (11745062_a_at) / Fold change /veh IRGQ (11745062_a_at) / RFU FAM174B (11720279_a_at) / Fold change /veh FAM174B (11720279_a_at) / RFU TMPRSS4 (11748680_a_at) / Fold change /veh TMPRSS4 (11748680_a_at) / RFU FAM212B (11763350_a_at) / Fold change /veh FAM212B (11763350_a_at) / RFU PLEKHG5 (11743358_a_at) / Fold change /veh PLEKHG5 (11743358_a_at) / RFU ZSCAN30 (11745921_a_at) / Fold change /veh ZSCAN30 (11745921_a_at) / RFU CMKLR1 (11741424_a_at) / Fold change /veh CMKLR1 (11741424_a_at) / RFU LOC101060620 /// MAPK8IP1 (11723275_at) / Fold change /veh LOC101060620 /// MAPK8IP1 (11723275_at) / RFU SPTSSB (11747773_x_at) / Fold change /veh SPTSSB (11747773_x_at) / RFU PRSS12 (11739890_at) / Fold change /veh PRSS12 (11739890_at) / RFU BIN1 (11741810_x_at) / Fold change /veh BIN1 (11741810_x_at) / RFU WNT11 (11732464_a_at) / Fold change /veh WNT11 (11732464_a_at) / RFU C10orf10 (11716521_a_at) / Fold change /veh C10orf10 (11716521_a_at) / RFU C5orf56 (11738089_at) / Fold change /veh C5orf56 (11738089_at) / RFU CYB561 (11721691_x_at) / Fold change /veh CYB561 (11721691_x_at) / RFU ANKRD19P (11752326_a_at) / Fold change /veh ANKRD19P (11752326_a_at) / RFU OR2T12 /// OR2T33 /// OR2T8 (11738714_s_at) / Fold change /veh OR2T12 /// OR2T33 /// OR2T8 (11738714_s_at) / RFU VCAN (11748164_a_at) / Fold change /veh VCAN (11748164_a_at) / RFU JSRP1 (11732532_at) / Fold change /veh JSRP1 (11732532_at) / RFU KRTAP10-11 (11738290_x_at) / Fold change /veh KRTAP10-11 (11738290_x_at) / RFU MYO3A (11730013_a_at) / Fold change /veh MYO3A (11730013_a_at) / RFU EBF3 (11725865_a_at) / Fold change /veh EBF3 (11725865_a_at) / RFU CAMK2N1 (11719241_x_at) / Fold change /veh CAMK2N1 (11719241_x_at) / RFU C5orf56 (11738088_a_at) / Fold change /veh C5orf56 (11738088_a_at) / RFU OLFML3 (11715873_a_at) / Fold change /veh OLFML3 (11715873_a_at) / RFU LOC100653217 /// NTM (11731650_a_at) / Fold change /veh LOC100653217 /// NTM (11731650_a_at) / RFU MAPK11 (11762145_a_at) / Fold change /veh MAPK11 (11762145_a_at) / RFU FIZ1 (11724087_x_at) / Fold change /veh FIZ1 (11724087_x_at) / RFU OASL (11726364_x_at) / Fold change /veh OASL (11726364_x_at) / RFU SOX15 (11748057_x_at) / Fold change /veh SOX15 (11748057_x_at) / RFU CD79A (11719716_a_at) / Fold change /veh CD79A (11719716_a_at) / RFU HIST1H1D (11736915_at) / Fold change /veh HIST1H1D (11736915_at) / RFU CASKIN2 (11723855_a_at) / Fold change /veh CASKIN2 (11723855_a_at) / RFU LOC730098 (11760151_x_at) / Fold change /veh LOC730098 (11760151_x_at) / RFU OR4N2 (11742367_at) / Fold change /veh OR4N2 (11742367_at) / RFU PRRT2 (11749266_a_at) / Fold change /veh PRRT2 (11749266_a_at) / RFU SNX32 (11753110_a_at) / Fold change /veh SNX32 (11753110_a_at) / RFU CDHR5 (11726645_a_at) / Fold change /veh CDHR5 (11726645_a_at) / RFU RCAN1 (11760418_a_at) / Fold change /veh RCAN1 (11760418_a_at) / RFU FAM167A (11723789_a_at) / Fold change /veh FAM167A (11723789_a_at) / RFU FAM26E (11764081_at) / Fold change /veh FAM26E (11764081_at) / RFU ISYNA1 (11749810_s_at) / Fold change /veh ISYNA1 (11749810_s_at) / RFU ACY1 (11761880_at) / Fold change /veh ACY1 (11761880_at) / RFU 11764098_at / Fold change /veh 11764098_at / RFU SAMD14 (11745864_x_at) / Fold change /veh SAMD14 (11745864_x_at) / RFU NPB (11741838_a_at) / Fold change /veh NPB (11741838_a_at) / RFU TMPRSS6 (11731388_a_at) / Fold change /veh TMPRSS6 (11731388_a_at) / RFU KRTAP10-2 (11738614_at) / Fold change /veh KRTAP10-2 (11738614_at) / RFU ARHGAP8 /// PRR5-ARHGAP8 (11727945_x_at) / Fold change /veh ARHGAP8 /// PRR5-ARHGAP8 (11727945_x_at) / RFU KRTAP5-7 /// NADSYN1 (11734609_at) / Fold change /veh KRTAP5-7 /// NADSYN1 (11734609_at) / RFU RASL12 (11751679_a_at) / Fold change /veh RASL12 (11751679_a_at) / RFU CDKN2B (11736163_a_at) / Fold change /veh CDKN2B (11736163_a_at) / RFU PRF1 (11729649_at) / Fold change /veh PRF1 (11729649_at) / RFU, ZNF638 /// ZNF638-IT1 / Fold change vs veh, ZNF638 /// ZNF638-IT1 / RFU, PANK3 / Fold change vs veh, PANK3 / RFU, SH3YL1 / Fold change vs veh, SH3YL1 / RFU, ZEB2 / Fold change vs veh, ZEB2 / RFU, NRIP1 / Fold change vs veh, NRIP1 / RFU, PTTG1IP / Fold change vs veh, PTTG1IP / RFU, CAPN2 / Fold change vs veh, CAPN2 / RFU, MED14 / Fold change vs veh, MED14 / RFU, SNORA58 / Fold change vs veh, SNORA58 / RFU, C1orf63 / Fold change vs veh, C1orf63 / RFU, LRRFIP1 / Fold change vs veh, LRRFIP1 / RFU, NDUFAF7 / Fold change vs veh, NDUFAF7 / RFU, SLC12A2 / Fold change vs veh, SLC12A2 / RFU, IBTK / Fold change vs veh, IBTK / RFU, ESF1 / Fold change vs veh, ESF1 / Fold change vs veh, TMEM50B / RFU, TAOK1 / Fold change vs veh, TAOK1 / RFU, ACBD3 / Fold change vs veh, ACBD3 / RFU, TMA16 / Fold change vs veh, TMA16 / RFU, RWDD3 / Fold change vs veh, RWDD3 / RFU, BCAT1 / Fold change vs veh, BCAT1 / RFU, EDEM3 / Fold change vs veh, EDEM3 / RFU, TMEM33 / Fold change vs veh, TMEM33 / RFU, WDR75 / Fold change vs veh, WDR75 / RFU, AHCTF1 / Fold change vs veh, AHCTF1 / RFU, TFRC / Fold change vs veh, TFRC / RFU, ZDHHC17 / Fold change vs veh, ZDHHC17 / RFU, NOM1 / Fold change vs veh, NOM1 / RFU, ARL8B / Fold change vs veh, ARL8B / RFU, ZBTB11 / Fold change vs veh, ZBTB11 / RFU, TAMM41 / Fold change vs veh, TAMM41 / RFU, KIAA1704 /// LOC100996395 / Fold change vs veh, KIAA1704 /// LOC100996395 / RFU, ING1 / Fold change vs veh, ING1 / RFU, TRMT61B / Fold change vs veh, TRMT61B / RFU, FUBP3 / Fold change vs veh, FUBP3 / RFU, TP53 / Fold change vs veh, TP53 / RFU, TNKS2 / Fold change vs veh, TNKS2 / RFU, ZFP14 / Fold change vs veh, ZFP14 / RFU, ACTR2 / Fold change vs veh, ACTR2 / RFU, PPP3R1 / Fold change vs veh, PPP3R1 / RFU, PIK3R1 / Fold change vs veh, PIK3R1 / RFU, HNRNPA1 / Fold change vs veh, HNRNPA1 / RFU, RNF170 / Fold change vs veh, RNF170 / RFU, ZNF28 / Fold change vs veh, ZNF28 / RFU, RNGTT / Fold change vs veh, RNGTT / RFU, OGT / Fold change vs veh, OGT / RFU, BRD1 / Fold change vs veh, BRD1 / RFU, MARS / Fold change vs veh, MARS / RFU, ZNF655 / Fold change vs veh, ZNF655 / RFU, FAHD1 / Fold change vs veh, FAHD1 / RFU, BDP1 / Fold change vs veh, BDP1 / RFU, LRRCC1 / Fold change vs veh, LRRCC1 / RFU, ARID1A / Fold change vs veh, ARID1A / RFU, ZNF146 / Fold change vs veh, ZNF146 / RFU, ZNF330 / Fold change vs veh, ZNF330 / RFU, GPN3 / Fold change vs veh, GPN3 / RFU, C9orf123 / Fold change vs veh, C9orf123 / RFU, N4BP2L2 / Fold change vs veh, N4BP2L2 / RFU, ARFIP1 / Fold change vs veh, ARFIP1 / RFU, FAM179B / Fold change vs veh, FAM179B / RFU, BCL10 / Fold change vs veh, BCL10 / RFU, UHRF1BP1L / Fold change vs veh, UHRF1BP1L / RFU, BET1 / Fold change vs veh, BET1 / RFU, CNOT2 / Fold change vs veh, CNOT2 / RFU, ZNF268 / Fold change vs veh, ZNF268 / Fold change vs veh, ZNF507 / RFU, DGCR2 / Fold change vs veh, DGCR2 / RFU, WDSUB1 / Fold change vs veh, WDSUB1 / Fold change vs veh, HSP90B1 /// MIR3652 / RFU, ADSS / Fold change vs veh, ADSS / RFU, GK / Fold change vs veh, GK / RFU, ZNF148 / Fold change vs veh, ZNF148 / RFU, TAF9 / Fold change vs veh, TAF9 / RFU, SLC1A5 / Fold change vs veh, SLC1A5 / RFU, SLMO2 / Fold change vs veh, SLMO2 / RFU, ABCC4 / Fold change vs veh, ABCC4 / RFU, LOC101060439 /// RAP1B / Fold change vs veh, LOC101060439 /// RAP1B / RFU, RFX7 / Fold change vs veh, RFX7 / RFU, GTPBP10 / Fold change vs veh, GTPBP10 / RFU, CNEP1R1 / Fold change vs veh, CNEP1R1 / RFU, BIVM-ERCC5 /// ERCC5 / Fold change vs veh, BIVM-ERCC5 /// ERCC5 / RFU, ILF3 / Fold change vs veh, ILF3 / RFU 11762660_at / Fold change /veh 11762660_at / RFU VCAN (11757783_s_at) / Fold change /veh VCAN (11757783_s_at) / RFU DDX43 (11728927_at) / Fold change /veh DDX43 (11728927_at) / RFU KRT8 (11758188_x_at) / Fold change /veh KRT8 (11758188_x_at) / RFU NKD1 (11759106_at) / Fold change /veh NKD1 (11759106_at) / RFU SRD5A1 (11742802_a_at) / Fold change /veh SRD5A1 (11742802_a_at) / RFU TPSAB1 /// TPSB2 (11721975_s_at) / Fold change /veh TPSAB1 /// TPSB2 (11721975_s_at) / RFU GSTM3 (11746129_a_at) / Fold change /veh GSTM3 (11746129_a_at) / RFU IL23R (11737362_x_at) / Fold change /veh IL23R (11737362_x_at) / RFU TMEM51 (11727254_a_at) / Fold change /veh TMEM51 (11727254_a_at) / RFU PIWIL2 (11732686_x_at) / Fold change /veh PIWIL2 (11732686_x_at) / RFU ORM1 (11744905_x_at) / Fold change /veh ORM1 (11744905_x_at) / RFU CCDC152 (11743942_at) / Fold change /veh CCDC152 (11743942_at) / RFU ECM1 (11717891_a_at) / Fold change /veh ECM1 (11717891_a_at) / RFU IL23R (11748794_a_at) / Fold change /veh IL23R (11748794_a_at) / RFU TNFAIP8L3 (11732012_x_at) / Fold change /veh TNFAIP8L3 (11732012_x_at) / RFU MBOAT4 (11741988_at) / Fold change /veh MBOAT4 (11741988_at) / RFU 11764193_at / Fold change /veh 11764193_at / RFU TMEM53 (11763286_at) / Fold change /veh TMEM53 (11763286_at) / RFU MAGEB2 (11727129_at) / Fold change /veh MAGEB2 (11727129_at) / RFU TMEM200A (11744735_a_at) / Fold change /veh TMEM200A (11744735_a_at) / RFU CCDC152 (11751479_a_at) / Fold change /veh CCDC152 (11751479_a_at) / RFU FAM211A (11726209_a_at) / Fold change /veh FAM211A (11726209_a_at) / RFU RGS16 (11746705_a_at) / Fold change /veh RGS16 (11746705_a_at) / RFU VCAN (11755009_s_at) / Fold change /veh VCAN (11755009_s_at) / RFU RHOB (11743442_s_at) / Fold change /veh RHOB (11743442_s_at) / RFU RGS16 (11720943_a_at) / Fold change /veh RGS16 (11720943_a_at) / RFU RGS16 (11720944_at) / Fold change /veh RGS16 (11720944_at) / RFU, VPS4B / Fold change vs veh, VPS4B / RFU, CREB1 / Fold change vs veh, CREB1 / RFU, DNAJC13 / Fold change vs veh, DNAJC13 / RFU, GNAQ / Fold change vs veh, GNAQ / RFU, CDK5R1 / Fold change vs veh, CDK5R1 / RFU, ZRANB3 / Fold change vs veh, ZRANB3 / RFU, CUL4A / Fold change vs veh, CUL4A / RFU, CCNY / Fold change vs veh, CCNY / RFU, UFL1 / Fold change vs veh, UFL1 / RFU, COG3 / Fold change vs veh, COG3 / RFU, DIAPH2 / Fold change vs veh, DIAPH2 / RFU, SKA2 / Fold change vs veh, SKA2 / RFU, AFF3 / Fold change vs veh, AFF3 / RFU, LMF1 / Fold change vs veh, LMF1 / RFU, IPO11 / Fold change vs veh, IPO11 / RFU, DFFB / Fold change vs veh, DFFB / RFU, FOXP1 / Fold change vs veh, FOXP1 / RFU, CARD8 / Fold change vs veh, CARD8 / RFU, STRN3 / Fold change vs veh, STRN3 / RFU, ADK / Fold change vs veh, ADK / RFU, RASSF2 / Fold change vs veh, RASSF2 / RFU, WIPF1 / Fold change vs veh, WIPF1 / RFU, LARP1B / Fold change vs veh, LARP1B / RFU, RASA1 / Fold change vs veh, RASA1 / RFU, RB1 / Fold change vs veh, RB1 / RFU, PPFIA1 / Fold change vs veh, PPFIA1 / RFU, MAT2A / Fold change vs veh, MAT2A / RFU, CCT5 / Fold change vs veh, CCT5 / RFU, WDR92 / Fold change vs veh, WDR92 / RFU, CUX1 / Fold change vs veh, CUX1 / RFU, TTC7A / Fold change vs veh, TTC7A / RFU, TMEM135 / Fold change vs veh, TMEM135 / RFU, DEPTOR / Fold change vs veh, DEPTOR / RFU, CPM / Fold change vs veh, CPM / RFU, DNAJB6 / Fold change vs veh, DNAJB6 / RFU, CACNA2D3 / Fold change vs veh, CACNA2D3 / RFU, DTX4 / Fold change vs veh, DTX4 / RFU, TFCP2 / Fold change vs veh, TFCP2 / RFU, GMCL1 /// GMCL1P1 / Fold change vs veh, GMCL1 /// GMCL1P1 / RFU, AEBP2 / Fold change vs veh, AEBP2 / RFU, SNHG1 /// SNORD22 /// SNORD25 /// SNORD26 /// SNORD27 /// SNORD28 /// SNORD29 /// SNORD31 / Fold change vs veh, SNHG1 /// SNORD22 /// SNORD25 /// SNORD26 /// SNORD27 /// SNORD28 /// SNORD29 /// SNORD31 / Fold change (Aza/veh), C12orf56 (ProbeSet 11735607_a_at) / Fold change (ACY-1035/veh), C12orf56 (ProbeSet 11735607_a_at) / Fold change (Aza/veh), FGFR1OP (ProbeSet 11751329_s_at) / Fold change (ACY-1035/veh), FGFR1OP (ProbeSet 11751329_s_at) / Fold change (Aza/veh), VPS36 (ProbeSet 11739960_a_at) / Fold change (ACY-1035/veh), VPS36 (ProbeSet 11739960_a_at) / RFU SYPL1 (11715823_x_at) / Fold change /veh SYPL1 (11715823_x_at) / RFU IGFBP7 (11715501_s_at) / Fold change /veh IGFBP7 (11715501_s_at) / RFU REEP3 (11722064_at) / Fold change /veh REEP3 (11722064_at) / RFU IGLL1 (11728026_x_at) / Fold change /veh IGLL1 (11728026_x_at): dose or concentration left out as unconfirmed
Details: ProbeSet 11724526_at; LIST B

Nc1ccc(-c2cccs2)cc1NC(=O)c1ccc2c(c1)cc(C1CC1)n2CCN1CCOCC1 [ACY-1035]
RFU, FAHD1: 149.86 RFU
